The values that follow come from patent EP0390602A1, “Neurotrophic peptides” (SUMITOMO PHARMACEUTICALS COMPANY, LIMITED, priority 1989, dated 1990).

Several values for one entry are separate records, joined by “and”; a condition that tells them apart may be missing. Equal values may be shown once. Where no end group is shown, it is not given here.

The test system of this test is culture of rat medial septum nucleous. The experiment in a line: Enhancing effect on acetylcholine synthesis in culture of rat medial septum nucleus (method of Ojika et al.). Type of test: cell-based. The following applies: for Ash synthesis (%): Table 4, Concentration 1 x 10⁻⁸, control value as 100%, several single values per cell. As for the experimental part: The neurotrophic peptide and its derivative of the present invention can regulate differentiation and maturation of neuronal cells. That is, the neurotrophic peptide and its derivative accelerate the acetylcholine synthesis in the tissue of medial septum nucleous which is rich in cholinergic neuron. The biological activity can be determined by the method of Ojika, K., et al. [Ojika, K., et al., Japanese Journal of Psycopharmacology, 7, 447-451, (1987)].
The peptides were assayed for a biological activity in accordance with the method of Ojika et al. [Japanese Journal of Psycopharmacology, 7, 447-451 (1987)]. Namely, medial septum nucleous removed from rat embryonal brain (16 day embryo) is cut to small pieces, then the pieces were cultured in the Bottenstein's modified N₂ medium containing 1% FCS of saturation concentration, in Falcon's 35 mm plastic culture dish with 7% CO₂ mixed air, at 36°C. The neurotrophic peptide or its derivative was added to the cultures at initial day. In a control group, no peptide is added. The neurotrophic peptide may be added to the culture at 3 days after the initial day. After 6 days culture, an acetylcholine synthesis activity of cultured tissue was assayed to determine the biological activity of the peptide. The acetylcholine synthesis activity was assayed as follows.
A cultured tissue was pre-incubated in high potasium Tyrode solution buffered with tris-HCl (pH 7.4) containing 98 mM of Nacl and 55 mM of Kcl , then incubated in a buffered solution containing 100 nM [³H] choline chloride (15 Ci/mmol) at 37°C for 30 minutes. After washing out of free [³H] choline, the tissue was dissolved in 1 N formic acid/acetone (15 : 85) solution. Free [³H] choline was converted to phosphocholine by choline kinase (0.1 unit/ml) and [³H] acetylcholine was extracted with tetraphenyl boron (5 mg/ml acetonitrile) to determine the acetylcholine synthesis activity. The activity of cultured tissue for synthesis of acetylcholine was defined as an amount of synthesized acetylcholine per piece of cultured tissue.

“ISQWAGPL [HCNP(4-11)OH, Ile-Ser-Gln-Trp-Ala-Gly-Pro-Leu]”: the “Ash synthesis (%)” value is 160% and 139%. With DISQWAG-NH2 [HCNP(3-9)NH₂], the “Ash synthesis (%)” value is 224% and 138%. Consider Ac-AADISQWAG-NH2 [Ac-HCNP(1-9)NH₂], for which the “Ash synthesis (%)” value is 227% and 216%. For “H-AADISQWAGPL-OH [f-HCNP, H-Ala-Ala-Asp-Ile-Ser-Gln-Trp-Ala-Gly-Pro-Leu-OH]”, the Ach synthesis activity (Table 3, 2.5 pg/ml, 6 days culture, average value in triplet assay, Control 7.1 ± 1.1) is on record as 11.3 ± 0.8 fmol/specimen. Besides, for the setting “concentration of 2.5 pg/ml”, the “acetylcholine synthesis activity as compared with control culture” value came to 159%.
